What was measured:
Assay in all cases: biochemical
Assay type in all cases: biochemical
382 unique human kinases [1] = target: T1, 382 unique human kinases (Homo sapiens, UniProt P22612); details: kinase PKAcg, compound 10 uM; for remaining activity at 10 µM: read-out: % Enzyme Activity (relative to DMSO controls)
T1 construct: purchased Reaction Biology (HotSpot contract assay)

382 unique human kinases [2] = target: T2, 382 unique human kinases (Homo sapiens, UniProt P21802, K526E); details: for remaining activity at 10 µM: read-out: % Enzyme Activity (relative to DMSO controls)
T2 construct: purchased Reaction Biology (HotSpot contract assay)

382 unique human kinases [3] = target: T3, 382 unique human kinases (Homo sapiens, UniProt P23443); details: kinase p70S6K/RPS6KB1, compound 10 uM; for remaining activity at 10 µM: read-out: % Enzyme Activity (relative to DMSO controls)
T3 construct: purchased Reaction Biology (HotSpot contract assay)

382 unique human kinases [4] = target: T4, 382 unique human kinases (Homo sapiens, UniProt Q9H422); details: HIPK3, compound at 10 uM, duplicate values; for remaining activity at 10 µM: read-out: % Enzyme Activity (relative to DMSO controls)
T4 construct: purchased Reaction Biology (HotSpot contract assay)

382 unique human kinases [5] = target: T5, 382 unique human kinases (Homo sapiens, UniProt Q8TF76); details: Haspin, 10 uM; for remaining activity at 10 µM: read-out: % Enzyme Activity (relative to DMSO controls)
T5 construct: purchased Reaction Biology (HotSpot contract assay)
T5 sequence (Q8TF76 1-798): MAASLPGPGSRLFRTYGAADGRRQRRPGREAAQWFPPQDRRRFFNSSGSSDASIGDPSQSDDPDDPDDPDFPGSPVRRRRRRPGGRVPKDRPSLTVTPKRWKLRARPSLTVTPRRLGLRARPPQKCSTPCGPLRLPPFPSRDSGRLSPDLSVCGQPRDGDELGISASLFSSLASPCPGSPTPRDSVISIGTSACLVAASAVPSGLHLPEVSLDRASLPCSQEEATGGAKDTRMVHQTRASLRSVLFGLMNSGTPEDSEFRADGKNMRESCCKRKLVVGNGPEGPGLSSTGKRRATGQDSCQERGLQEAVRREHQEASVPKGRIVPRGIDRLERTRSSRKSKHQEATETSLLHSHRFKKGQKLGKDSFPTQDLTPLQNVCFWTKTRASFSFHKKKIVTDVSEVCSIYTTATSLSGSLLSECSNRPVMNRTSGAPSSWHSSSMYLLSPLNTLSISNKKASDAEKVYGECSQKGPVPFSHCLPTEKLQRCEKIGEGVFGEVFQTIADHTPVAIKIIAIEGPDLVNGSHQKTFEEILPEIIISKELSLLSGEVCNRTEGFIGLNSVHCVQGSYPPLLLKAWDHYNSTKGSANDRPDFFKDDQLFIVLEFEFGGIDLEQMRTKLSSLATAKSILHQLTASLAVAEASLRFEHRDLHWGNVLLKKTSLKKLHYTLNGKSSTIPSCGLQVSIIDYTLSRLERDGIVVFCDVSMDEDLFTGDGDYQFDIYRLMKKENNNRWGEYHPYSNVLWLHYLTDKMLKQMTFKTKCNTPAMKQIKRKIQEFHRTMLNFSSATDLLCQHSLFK

382 unique human kinases [6] = target: T6, 382 unique human kinases (Homo sapiens, UniProt Q06187, E41K); details: BTK (E41K), 10 uM; for remaining activity at 10 µM: read-out: % Enzyme Activity (relative to DMSO controls)
T6 construct: purchased Reaction Biology (HotSpot contract assay)

382 unique human kinases [7] = target: T7, 382 unique human kinases (Homo sapiens, UniProt P22694); details: kinase PKAcb, compound 10 uM; for remaining activity at 10 µM: read-out: % Enzyme Activity (relative to DMSO controls)
T7 construct: purchased Reaction Biology (HotSpot contract assay)

382 unique human kinases [8] = target: T8, 382 unique human kinases (Homo sapiens, UniProt Q6IQ55); details: TTBK2, compound at 10 uM, duplicate values; for remaining activity at 10 µM: read-out: % Enzyme Activity (relative to DMSO controls)
T8 construct: purchased Reaction Biology (HotSpot contract assay)

382 unique human kinases [9] = target: T9, 382 unique human kinases (Homo sapiens, UniProt Q9BXA7); details: STK22D/TSSK1, 10 uM; for remaining activity at 10 µM: read-out: % Enzyme Activity (relative to DMSO controls)
T9 construct: purchased Reaction Biology (HotSpot contract assay)
T9 sequence (Q9BXA7 1-367): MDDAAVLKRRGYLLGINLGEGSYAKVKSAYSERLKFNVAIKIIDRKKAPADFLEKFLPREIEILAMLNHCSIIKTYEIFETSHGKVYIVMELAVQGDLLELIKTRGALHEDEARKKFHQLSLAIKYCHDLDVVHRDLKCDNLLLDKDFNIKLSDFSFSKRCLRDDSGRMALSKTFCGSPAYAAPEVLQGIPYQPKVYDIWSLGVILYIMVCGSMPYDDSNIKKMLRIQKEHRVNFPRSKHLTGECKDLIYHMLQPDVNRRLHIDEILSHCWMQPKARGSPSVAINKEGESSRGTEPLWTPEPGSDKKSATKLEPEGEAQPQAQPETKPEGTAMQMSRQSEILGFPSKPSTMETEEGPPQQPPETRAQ

382 unique human kinases [10] = target: T10, 382 unique human kinases (Homo sapiens, UniProt Q9UEW8); details: STK39/STLK3, 10 uM; for remaining activity at 10 µM: read-out: % Enzyme Activity (relative to DMSO controls)
T10 construct: purchased Reaction Biology (HotSpot contract assay)

382 unique human kinases [11] = target: T11, 382 unique human kinases (Homo sapiens, UniProt Q9UM73, G1269S); details: ALK (G1269S), 10 uM; for remaining activity at 10 µM: read-out: % Enzyme Activity (relative to DMSO controls)
T11 construct: purchased Reaction Biology (HotSpot contract assay)

382 unique human kinases [12] = target: T12, 382 unique human kinases (Homo sapiens, UniProt Q13177); details: PAK2, 10 uM; for remaining activity at 10 µM: read-out: % Enzyme Activity (relative to DMSO controls)
T12 construct: purchased Reaction Biology (HotSpot contract assay)

382 unique human kinases [13] = target: T13, 382 unique human kinases (Homo sapiens, UniProt P10721, V560G); details: c-Kit (V560G), [ATP] 20 µM, compound 10 uM; for remaining activity at 10 µM: read-out: % Enzyme Activity (relative to DMSO controls)
T13 construct: purchased Reaction Biology (HotSpot contract assay)

382 unique human kinases [14] = target: T14, 382 unique human kinases (Homo sapiens, UniProt Q9H0K1); details: SIK2, [ATP] 30 µM
T14 construct: purchased Reaction Biology (HotSpot contract assay)

382 unique human kinases [15] = target: 382 unique human kinases (Homo sapiens, UniProt Q9Y463); details: DYRK1B, [ATP] 20 µM, compound 10 uM; for remaining activity at 10 µM: read-out: % Enzyme Activity (relative to DMSO controls)
382 unique human kinases [16] = target: T15, 382 unique human kinases (Homo sapiens, UniProt O75716); details: STK16, [ATP] 5 µM, compound 10 uM; for remaining activity at 10 µM: read-out: % Enzyme Activity (relative to DMSO controls)
T15 construct: purchased Reaction Biology (HotSpot contract assay)

[17] = compound 10 uM, read-out: % Enzyme Activity (relative to DMSO controls)

T14 sequence (Q9H0K1 whole entry): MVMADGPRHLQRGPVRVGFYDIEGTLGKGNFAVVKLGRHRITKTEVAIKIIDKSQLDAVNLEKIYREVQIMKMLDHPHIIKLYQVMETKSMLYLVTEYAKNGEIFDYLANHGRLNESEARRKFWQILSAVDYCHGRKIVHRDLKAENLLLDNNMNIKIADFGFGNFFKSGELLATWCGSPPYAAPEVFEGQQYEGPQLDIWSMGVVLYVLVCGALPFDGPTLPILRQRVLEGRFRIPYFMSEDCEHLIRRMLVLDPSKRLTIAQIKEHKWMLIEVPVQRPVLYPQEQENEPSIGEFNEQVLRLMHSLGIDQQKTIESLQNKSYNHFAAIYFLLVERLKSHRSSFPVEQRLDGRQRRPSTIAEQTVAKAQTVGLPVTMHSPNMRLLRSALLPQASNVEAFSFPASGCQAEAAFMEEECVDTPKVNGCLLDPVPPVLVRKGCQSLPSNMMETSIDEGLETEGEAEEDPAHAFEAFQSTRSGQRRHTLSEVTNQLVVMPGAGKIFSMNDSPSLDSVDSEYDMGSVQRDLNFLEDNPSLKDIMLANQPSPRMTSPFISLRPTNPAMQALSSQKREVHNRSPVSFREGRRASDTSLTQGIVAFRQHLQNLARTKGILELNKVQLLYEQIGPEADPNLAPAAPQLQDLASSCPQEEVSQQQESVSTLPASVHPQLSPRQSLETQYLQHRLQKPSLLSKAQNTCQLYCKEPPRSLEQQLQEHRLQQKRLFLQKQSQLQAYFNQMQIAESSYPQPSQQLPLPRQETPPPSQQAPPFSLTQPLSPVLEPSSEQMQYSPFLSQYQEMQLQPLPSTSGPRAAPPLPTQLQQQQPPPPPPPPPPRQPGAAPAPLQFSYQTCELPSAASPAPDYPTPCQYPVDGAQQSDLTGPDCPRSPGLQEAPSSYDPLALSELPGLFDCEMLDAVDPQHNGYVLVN
T11 sequence (Q9UM73 19-1620 G1269S): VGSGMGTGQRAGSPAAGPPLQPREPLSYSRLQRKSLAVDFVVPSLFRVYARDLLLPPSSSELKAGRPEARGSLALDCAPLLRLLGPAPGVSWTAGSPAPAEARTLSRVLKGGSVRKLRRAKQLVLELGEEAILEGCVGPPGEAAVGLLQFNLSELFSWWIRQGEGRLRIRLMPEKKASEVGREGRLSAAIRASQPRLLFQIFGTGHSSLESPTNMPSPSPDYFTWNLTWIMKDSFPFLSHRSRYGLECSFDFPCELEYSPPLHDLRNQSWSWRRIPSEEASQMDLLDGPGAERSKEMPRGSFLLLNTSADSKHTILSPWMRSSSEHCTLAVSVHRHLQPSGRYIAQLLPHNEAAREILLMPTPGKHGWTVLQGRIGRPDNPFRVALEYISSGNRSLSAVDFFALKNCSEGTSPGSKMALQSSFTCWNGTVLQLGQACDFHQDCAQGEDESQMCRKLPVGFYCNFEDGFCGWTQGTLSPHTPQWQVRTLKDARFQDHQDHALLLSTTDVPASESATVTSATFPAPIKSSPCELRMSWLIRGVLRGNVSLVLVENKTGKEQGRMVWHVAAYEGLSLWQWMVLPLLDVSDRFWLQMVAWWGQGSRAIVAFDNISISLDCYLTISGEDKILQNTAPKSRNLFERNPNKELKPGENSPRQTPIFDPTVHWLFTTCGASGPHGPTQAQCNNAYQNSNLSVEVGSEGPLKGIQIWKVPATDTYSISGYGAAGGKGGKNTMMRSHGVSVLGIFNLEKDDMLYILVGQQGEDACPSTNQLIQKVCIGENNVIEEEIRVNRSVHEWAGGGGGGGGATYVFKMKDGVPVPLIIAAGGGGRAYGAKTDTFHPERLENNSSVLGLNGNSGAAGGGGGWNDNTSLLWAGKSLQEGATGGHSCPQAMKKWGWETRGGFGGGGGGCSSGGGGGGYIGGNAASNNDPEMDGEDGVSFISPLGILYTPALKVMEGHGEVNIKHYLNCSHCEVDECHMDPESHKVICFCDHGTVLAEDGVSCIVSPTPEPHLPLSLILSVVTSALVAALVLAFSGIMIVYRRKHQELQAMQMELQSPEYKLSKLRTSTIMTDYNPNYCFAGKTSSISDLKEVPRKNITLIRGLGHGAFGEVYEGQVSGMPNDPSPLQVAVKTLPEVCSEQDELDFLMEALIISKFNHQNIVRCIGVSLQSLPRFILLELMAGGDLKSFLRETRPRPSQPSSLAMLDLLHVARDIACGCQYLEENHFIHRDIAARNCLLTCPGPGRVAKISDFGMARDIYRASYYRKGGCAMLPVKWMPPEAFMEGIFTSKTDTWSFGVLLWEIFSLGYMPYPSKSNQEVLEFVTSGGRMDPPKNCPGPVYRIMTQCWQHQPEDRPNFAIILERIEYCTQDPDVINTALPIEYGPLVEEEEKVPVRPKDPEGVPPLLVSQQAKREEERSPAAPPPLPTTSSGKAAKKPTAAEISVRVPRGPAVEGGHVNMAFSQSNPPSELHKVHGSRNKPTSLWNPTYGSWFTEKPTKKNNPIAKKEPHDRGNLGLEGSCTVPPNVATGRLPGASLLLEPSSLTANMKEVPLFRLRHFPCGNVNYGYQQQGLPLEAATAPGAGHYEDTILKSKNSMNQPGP
T3 sequence (P23443 whole entry): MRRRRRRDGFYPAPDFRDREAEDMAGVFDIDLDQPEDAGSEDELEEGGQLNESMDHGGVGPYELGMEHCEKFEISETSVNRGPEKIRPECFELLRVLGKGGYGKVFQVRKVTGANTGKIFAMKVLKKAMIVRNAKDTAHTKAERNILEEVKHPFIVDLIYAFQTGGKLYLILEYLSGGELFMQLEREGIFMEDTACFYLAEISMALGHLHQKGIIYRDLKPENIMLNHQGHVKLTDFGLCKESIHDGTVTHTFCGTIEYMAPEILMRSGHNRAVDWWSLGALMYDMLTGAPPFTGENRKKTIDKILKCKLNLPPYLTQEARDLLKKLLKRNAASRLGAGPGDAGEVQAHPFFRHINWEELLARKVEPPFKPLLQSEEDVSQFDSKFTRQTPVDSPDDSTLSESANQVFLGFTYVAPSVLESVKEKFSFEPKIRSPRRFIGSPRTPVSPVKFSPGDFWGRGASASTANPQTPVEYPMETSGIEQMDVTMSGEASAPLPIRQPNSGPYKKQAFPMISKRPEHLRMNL
T4 sequence (Q9H422 whole entry): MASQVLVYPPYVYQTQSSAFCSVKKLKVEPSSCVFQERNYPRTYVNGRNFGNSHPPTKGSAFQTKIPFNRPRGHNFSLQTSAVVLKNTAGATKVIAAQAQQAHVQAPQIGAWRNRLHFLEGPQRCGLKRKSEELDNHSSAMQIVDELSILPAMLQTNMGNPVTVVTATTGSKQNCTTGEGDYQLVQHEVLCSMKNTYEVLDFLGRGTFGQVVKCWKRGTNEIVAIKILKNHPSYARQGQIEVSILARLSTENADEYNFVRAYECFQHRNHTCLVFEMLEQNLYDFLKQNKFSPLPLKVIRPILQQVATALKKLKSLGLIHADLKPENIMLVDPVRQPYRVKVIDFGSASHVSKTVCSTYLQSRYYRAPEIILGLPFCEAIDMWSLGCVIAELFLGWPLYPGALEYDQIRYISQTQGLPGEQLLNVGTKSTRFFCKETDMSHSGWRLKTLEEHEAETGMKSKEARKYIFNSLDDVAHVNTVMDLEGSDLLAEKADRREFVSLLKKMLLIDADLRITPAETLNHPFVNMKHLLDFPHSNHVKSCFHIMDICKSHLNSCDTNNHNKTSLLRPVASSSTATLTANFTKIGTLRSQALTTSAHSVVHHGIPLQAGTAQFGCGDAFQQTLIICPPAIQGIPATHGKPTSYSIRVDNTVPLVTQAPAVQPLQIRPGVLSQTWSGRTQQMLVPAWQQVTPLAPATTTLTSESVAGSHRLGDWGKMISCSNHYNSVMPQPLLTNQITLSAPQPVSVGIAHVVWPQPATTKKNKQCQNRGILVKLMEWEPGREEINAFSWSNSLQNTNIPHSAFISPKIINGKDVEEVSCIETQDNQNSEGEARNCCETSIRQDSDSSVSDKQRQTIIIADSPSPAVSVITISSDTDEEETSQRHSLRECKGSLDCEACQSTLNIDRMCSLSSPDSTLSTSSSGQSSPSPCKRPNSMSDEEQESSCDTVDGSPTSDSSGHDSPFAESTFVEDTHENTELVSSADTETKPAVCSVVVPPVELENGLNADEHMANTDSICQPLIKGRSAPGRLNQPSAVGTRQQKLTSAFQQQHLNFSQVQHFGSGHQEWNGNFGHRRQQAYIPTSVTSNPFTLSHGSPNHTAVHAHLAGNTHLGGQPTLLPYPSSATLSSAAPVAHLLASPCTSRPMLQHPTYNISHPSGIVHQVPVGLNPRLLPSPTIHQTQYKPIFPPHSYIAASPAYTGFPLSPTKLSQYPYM
Chain of 382 unique human kinases (Homo sapiens, UniProt Q9Y463) (Q9Y463 whole entry): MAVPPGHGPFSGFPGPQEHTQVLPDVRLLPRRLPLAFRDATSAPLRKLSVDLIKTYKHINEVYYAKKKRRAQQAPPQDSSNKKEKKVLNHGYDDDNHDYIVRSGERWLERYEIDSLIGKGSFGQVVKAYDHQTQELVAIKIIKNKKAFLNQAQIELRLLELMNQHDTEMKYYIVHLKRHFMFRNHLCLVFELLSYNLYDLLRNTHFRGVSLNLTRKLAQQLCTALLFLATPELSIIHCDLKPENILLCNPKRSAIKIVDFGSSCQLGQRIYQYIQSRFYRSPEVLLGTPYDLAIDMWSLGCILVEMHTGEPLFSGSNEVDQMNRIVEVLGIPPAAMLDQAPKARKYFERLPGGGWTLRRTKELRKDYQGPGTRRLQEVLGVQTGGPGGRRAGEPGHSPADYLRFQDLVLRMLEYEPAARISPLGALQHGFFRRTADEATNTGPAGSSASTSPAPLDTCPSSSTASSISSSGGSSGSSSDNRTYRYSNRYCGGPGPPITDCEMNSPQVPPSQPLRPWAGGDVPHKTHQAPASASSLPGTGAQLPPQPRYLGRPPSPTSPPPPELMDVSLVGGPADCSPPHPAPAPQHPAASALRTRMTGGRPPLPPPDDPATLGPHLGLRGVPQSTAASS

Compound | remaining activity at 10 µM (382 unique human kinases [1]) [%] | remaining activity at 10 µM (382 unique human kinases [2]) [%] | remaining activity at 10 µM (382 unique human kinases [3]) [%] | remaining activity at 10 µM (382 unique human kinases [4]) [%] | remaining activity at 10 µM (382 unique human kinases [5]) [%] | remaining activity at 10 µM (382 unique human kinases [6]) [%] | remaining activity at 10 µM (382 unique human kinases [7]) [%] | remaining activity at 10 µM (382 unique human kinases [8]) [%] | remaining activity at 10 µM (382 unique human kinases [9]) [%] | remaining activity at 10 µM (382 unique human kinases [10]) [%] | remaining activity at 10 µM (382 unique human kinases [11]) [%] | remaining activity at 10 µM (382 unique human kinases [12]) [%] | remaining activity at 10 µM (382 unique human kinases [13]) [%] | remaining activity at 10 µM (382 unique human kinases [14]; [17]) [%] | remaining activity at 10 µM (382 unique human kinases [15]) [%] | remaining activity at 10 µM (382 unique human kinases [16]) [%] | further results
CC(C)c1cc(-c2n[nH]c(=O)n2-c2ccc3c(ccn3C)c2)c(O)cc1O [Ganetespib (STA9090)] | 101 | 68.8 | 91.3 | 111 | 75.3 | 65.4 | 96.3 | 124 | 75.4 | 70.5 | 74.6 |  |  |  |  |  | 
CC(C)c1cc(-c2n[nH]c(=O)n2-c2ccc3c(ccn3C)c2)c(O)cc1O [Ganetespib] |  |  |  |  |  |  |  |  |  |  |  | 99.6 | 58.9 | 4.64 | 45 | 32.4 | remaining activity at 1 µM (382 unique human kinases [14]; compound 1 uM, read-out: % Enzyme Activity (relative to DMSO controls)): 70.2%
CCNC(=O)c1noc(-c2cc(C(C)C)c(O)cc2O)c1-c1ccc(CN2CCOCC2)cc1 [Luminespib (AUY-922)] | 104 | 102 | 107 | 108 | 93 | 96.8 | 103 | 122 | 99.3 | 93.8 | 104 |  |  |  |  |  | % Enzyme Activity (relative to DMSO controls) (382 unique human kinases [1]): 102.38%; % Enzyme Activity (relative to DMSO controls) (382 unique human kinases [2]): 99.92%; % Enzyme Activity (relative to DMSO controls) (382 unique human kinases [3]): 107.14%; % Enzyme Activity (relative to DMSO controls) (382 unique human kinases [4]): 106.96%; % Enzyme Activity (relative to DMSO controls) (382 unique human kinases [5]): 89.64%; % Enzyme Activity (relative to DMSO controls) (382 unique human kinases [6]): 96.25%; % Enzyme Activity (relative to DMSO controls) (382 unique human kinases [7]): 100.86%; % Enzyme Activity (relative to DMSO controls) (382 unique human kinases [8]): 121.05%; % Enzyme Activity (relative to DMSO controls) (382 unique human kinases [9]): 98.29%; % Enzyme Activity (relative to DMSO controls) (382 unique human kinases [10]): 90.56%; % Enzyme Activity (relative to DMSO controls) (382 unique human kinases [11]): 101.62%
CCNC(=O)c1noc(-c2cc(C(C)C)c(O)cc2O)c1-c1ccc(CN2CCOCC2)cc1 [Luminespib] |  |  |  |  |  |  |  |  |  |  |  | 99.3 | 111 | 81.2 | 98.9 | 98.4 | % Enzyme Activity (relative to DMSO controls) (382 unique human kinases [12]): 99.27%; % Enzyme Activity (relative to DMSO controls) (382 unique human kinases [13]): 109.32%; % Enzyme Activity (relative to DMSO controls) (382 unique human kinases [14]; compound 10 uM): 80.93%; % Enzyme Activity (relative to DMSO controls) (382 unique human kinases [15]): 97.25%; % Enzyme Activity (relative to DMSO controls) (382 unique human kinases [16]): 98.01%

From paper PMC8550792, “Evolution of kinase polypharmacology across HSP90 drug discovery” (Cell Chemical Biology, 2021)
